Experimental data taken from patent US7741327B2 (Hoffmann-La Roche Inc., priority 2008, dated 2010).

These molecules were tested against T1, Recombinant human liver GK1 (GST-GK) (Homo sapiens, UniProt P35557) (assay: In vitro glucokinase activity (G6PDH-coupled NADH assay)). Details: 30° C., 5 mM D-glucose, 10% DMSO.
T1 construct: made in house; host or cells: E. coli
T1 sequence (P35557 1-466 isoform P35557-2): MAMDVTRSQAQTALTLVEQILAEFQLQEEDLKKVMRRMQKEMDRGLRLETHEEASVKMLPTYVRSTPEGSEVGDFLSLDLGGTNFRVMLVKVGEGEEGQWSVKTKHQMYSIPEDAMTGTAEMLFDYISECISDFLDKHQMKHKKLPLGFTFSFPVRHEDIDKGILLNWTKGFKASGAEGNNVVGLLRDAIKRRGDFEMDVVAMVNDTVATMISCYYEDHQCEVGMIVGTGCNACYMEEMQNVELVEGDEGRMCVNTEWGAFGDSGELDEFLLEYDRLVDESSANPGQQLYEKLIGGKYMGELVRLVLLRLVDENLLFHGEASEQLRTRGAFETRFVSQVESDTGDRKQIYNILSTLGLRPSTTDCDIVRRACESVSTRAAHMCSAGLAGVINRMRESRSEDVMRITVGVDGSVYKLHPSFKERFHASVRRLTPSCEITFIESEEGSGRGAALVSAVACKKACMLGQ
Type: biochemical
Summary of the method: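 GST-tagged human liver GK1 from E. coli, assayed at 30° C in 25 mM Hepes pH 7.1 with 5 mM D-glucose, 1 mM ATP, 1.8 mM NAD and G6PDH coupling, 10% DMSO final; reaction started with enzyme after 10 min preincubation. NADH formation followed at OD340; SC1.5 is activator concentration giving 50% increase over DMSO control rate.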

SMILES	SC1.5 (concentration of activator that produced a 50% increase in the activity of GK)
COC1=CC(=O)N([C@@H](CC2CCCC2)C(=O)Nc2ccn(CCNC(=O)OC(C)(C)C)n2)C1 [Example 7, (2-{3-[(S)-3-Cyclopentyl-2-(4-methoxy-2-oxo-2,5-dihydro-pyrrol-1-yl)-propionylamino]-pyrazol-1-yl}-ethyl)-carbamic acid t-butylester]	13.732 µM
COc1ccccc1OC1=CC(=O)N(C(CC2CCOCC2)C(=O)Nc2ccn(CC(C)(C)O)n2)C1 (stereo not drawn) [Example 34, N-[1-(2-hydroxy-2-methyl-propyl)-1H-pyrazol-3-yl]-2-[4-(2-methoxy-phenoxy)-2-oxo-2,5-dihydro-pyrrol-1-yl]-3-(tetrahydropyran-4-yl)-propionamide]	0.217 µM
CC(C)C[C@@H](C(=O)Nc1ccn(C)n1)N1CC(Oc2cccc(C(C)(C)O)c2F)=CC1=O [Example 143, (S)-2-{4-[2-Fluoro-3-(1-hydroxy-1-methyl-ethyl)-phenoxy]-2-oxo-2,5-dihydro-pyrrol-1-yl}-4-methyl-pentanoic acid (1-methyl-1H-pyrazol-3-yl)-amide]	2.089 µM
CC(C)C[C@@H](C(=O)Nc1ccn(CC(=O)O)n1)N1CC(Oc2cccc(C3CC3)c2F)=CC1=O [Example 149, (3-{(S)-2-[4-(3-Cyclopropyl-2-fluoro-phenoxy)-2-oxo-2,5-dihydro-pyrrol-1-yl]-4-methyl-pentanoylamino}-pyrazol-1-yl)-acetic acid]	1.196 µM
Cl.Cn1ccc(NC(=O)[C@H](CC2CCCCC2)N2CC(Oc3ccccc3C(F)(F)F)=CC2=O)n1 [Example 90, (S)-3-Cyclohexyl-N-(1-methyl-1H-pyrazol-3-yl)-2-[2-oxo-4-(2-trifluoromethyl-phenoxy)-2,5-dihydro-pyrrol-1-yl]-propionamide Hydrochloride]	0.088 µM
CC(C)C[C@@H](C(=O)Nc1ccn(C[C@@H](O)CO)n1)N1CC(Oc2ccccc2Br)=CC1=O [Example 137, (S)-2-[4-(2-Bromo-phenoxy)-2-oxo-2,5-dihydro-pyrrol-1-yl]-4-methyl-pentanoic acid [1-((R)-2,3-dihydroxy-propyl)-1H-pyrazol-3-yl]-amide]	0.26 µM
C=Cc1cccc(OC2=CC(=O)N([C@@H](CC(C)C)C(=O)Nc3ccn(C[C@@H](O)CO)n3)C2)c1F [Example 145, (S)-2-[4-(2-Fluoro-3-vinyl-phenoxy)-2-oxo-2,5-dihydro-pyrrol-1-yl]-4-methyl-pentanoic acid [1-((R)-2,3-dihydroxy-propyl)-1H-pyrazol-3-yl]-amide]	0.134 µM
CC(C)(O)Cn1ccc(NC(=O)C(Cc2c(F)cccc2F)N2CC(Oc3c(F)cccc3F)=CC2=O)n1 (stereo not drawn) [Example 59, 2-[4-(2,6-Difluoro-phenoxy)-2-oxo-2,5-dihydro-pyrrol-1-yl]-3-(2,6-difluoro-phenyl)-N-[1-(2-hydroxy-2-methyl-propyl)-1-H-pyrazol-3-yl]-propionamide]	1.082 µM
COC(=O)c1ccc(NC(=O)[C@H](CC(C)C)N2CC(Oc3c(F)cccc3F)=CC2=O)nc1 [Example 46, 6-{(S)-2-[4-(2,6-difluoro-phenoxy)-2-oxo-2,5-dihydro-pyrrol-1-yl]-4-methyl-pentanoylamino}-nicotinic acid methyl ester]	0.097 µM
CC(C)C[C@@H](C(=O)Nc1ccn(C[C@@H](O)CO)n1)N1CC(Oc2cccc3ccccc23)=CC1=O [Example 100, (S)-4-Methyl-2-[4-(naphthalen-1-yloxy)-2-oxo-2,5-dihydro-pyrrol-1-yl]-pentanoic acid [1-((R)-2,3-dihydroxy-propyl)-1H-pyrazol-3-yl]-amide]	0.06 µM
CCOc1ccc(F)c(OC2=CC(=O)N([C@@H](CC(C)C)C(=O)Nc3cnc([C@H]4COC(C)(C)O4)cn3)C2)c1F [Example 152, (S)-2-[4-(3-Ethoxy-2,6-difluoro-phenoxy)-2-oxo-2,5-dihydro-pyrrol-1-yl]-4-methyl-pentanoic acid [5-((S)-2,2-dimethyl-[1,3]dioxolan-4-yl)-pyrazin-2-yl]-amide]	0.566 µM

Now from value to molecule:

SC1.5 (concentration of activator that produced a 50% increase in the activity of GK)	SMILES
0.207 µM	CCOc1ccc(F)c(OC2=CC(=O)N([C@@H](CC(C)C)C(=O)Nc3cnc([C@H](O)CO)cn3)C2)c1F [Example 153, (S)-2-[4-(3-Ethoxy-2,6-difluoro-phenoxy)-2-oxo-2,5-dihydro-pyrrol-1-yl]-4-methyl-pentanoic acid [5-((S)-1,2-dihydroxy-ethyl)-pyrazin-2-yl]-amide]
1.708 µM	CC(C)C[C@@H](C(=O)Nc1cnccn1)N1CC(Oc2cccc(CC(C)(C)O)c2)=CC1=O [Example 246, (S)-2-{4-[3-(2-Hydroxy-2-methyl-propyl)-phenoxy]-2-oxo-2,5-dihydro-pyrrol-1-yl}-4-methyl-pentanoic acid pyrazin-2-ylamide]
0.295 µM	COc1ccccc1OC1=CC(=O)N([C@@H](CC2CCCO2)C(=O)Nc2ccn(CC(C)(C)O)n2)C1 (stereo partly drawn) [Example 179, (S)-N-[1-(2-hydroxy-2-methyl-propyl)-1H-pyrazol-3-yl]-2-[4-(2-methoxy-phenoxy)-2-oxo-2,5-dihydro-pyrrol-1-yl]-3-(tetrahydro-furan-2-yl)-propionamide]
3.485 µM	COc1cccc(OC2=CC(=O)N(C(CC(C)(C)F)C(=O)Nc3ccn(CC(C)(C)O)n3)C2)c1Cl (stereo not drawn) [Example 171, 2-[4-(2-Chloro-3-methoxy-phenoxy)-2-oxo-2,5-dihydro-pyrrol-1-yl]-4-fluoro-4-methyl-pentanoic acid [1-(2-hydroxy-2-methyl-propyl)-1H-pyrazol-3-yl]-amide]
13.348 µM	CCN(C)C1=CC(=O)N([C@@H](CC2CCCCC2)C(=O)Nc2ccn(CC(C)(C)O)n2)C1 [Example 233, (S)-3-cyclohexyl-2-[4-(ethyl-methyl-amino)-2-oxo-2,5-dihydro-pyrrol-1-yl]-N-[1-(2-hydroxy-2-methyl-propyl)-1H-pyrazol-3-yl]-propionamide]
1.717 µM	CC(C)C[C@@H](C(=O)Nc1cnccn1)N1CC(Oc2cccc(C(O)CO)c2F)=CC1=O (stereo partly drawn) [Example 155, (S)-2-{4-[3-(1,2-Dihydroxy-ethyl)-2-fluoro-phenoxy]-2-oxo-2,5-dihydro-pyrrol-1-yl}-4-methyl-pentanoic acid pyrazin-2-ylamide]
0.056 µM	CCCc1ccccc1OC1=CC(=O)N([C@@H](CC2CCCCC2)C(=O)Nc2ccn(CC(C)(C)O)n2)C1 [Example 198, (S)-3-cyclohexyl-N-[1-(2-hydroxy-2-methyl-propyl)-1H-pyrazol-3-yl]-2-[2-oxo-4-(2-propyl-phenoxy)-2,5-dihydro-pyrrol-1-yl]-propionamide]
